Data taken from BigSolDB 2.1.

O=c1c(-c2ccc(O)cc2)coc2cc(O[C@@H]3O[C@H](CO)[C@@H](O)[C@H](O)[C@H]3O)ccc12
solubility (mole fraction)
Conditions	283.2 K	293.2 K	303.2 K	313.2 K	323.2 K
in THF	0.000784	0.00182	0.00684	0.0165	0.0417
in acetone	0.000148	0.000241	0.000326	0.000458	0.000553
in acetonitrile	5.77e-06	9e-06	1.4e-05	2e-05	3.3e-05
in chloroform	3.83e-07	8.76e-07	1.6e-06	2.36e-06	3.2e-06
in cyclohexane	1.25e-07	2.95e-07	5.56e-07	1.02e-06	1.37e-06
in ethanol	0.000291	0.000397	0.000499	0.000669	0.000813
in ethyl acetate	5.38e-06	7.88e-06	1.58e-05	4.24e-05	6.74e-05
in isopropanol	0.00016	0.000202	0.000283	0.000427	0.000503
in methanol	8.78e-05	0.000162	0.000339	0.000516	0.000794
in n-butanol	0.000141	0.000211	0.000253	0.000353	0.000479
in water	2.36e-06	4.1e-06	6.91e-06	9.39e-06	1.58e-05
